The target in the assay is T1, soybean lipoxygenase (LOX) (Glycine max, UniProt P08170).
T1 construct: gene LOX1.1
T1 sequence (P08170 1-839): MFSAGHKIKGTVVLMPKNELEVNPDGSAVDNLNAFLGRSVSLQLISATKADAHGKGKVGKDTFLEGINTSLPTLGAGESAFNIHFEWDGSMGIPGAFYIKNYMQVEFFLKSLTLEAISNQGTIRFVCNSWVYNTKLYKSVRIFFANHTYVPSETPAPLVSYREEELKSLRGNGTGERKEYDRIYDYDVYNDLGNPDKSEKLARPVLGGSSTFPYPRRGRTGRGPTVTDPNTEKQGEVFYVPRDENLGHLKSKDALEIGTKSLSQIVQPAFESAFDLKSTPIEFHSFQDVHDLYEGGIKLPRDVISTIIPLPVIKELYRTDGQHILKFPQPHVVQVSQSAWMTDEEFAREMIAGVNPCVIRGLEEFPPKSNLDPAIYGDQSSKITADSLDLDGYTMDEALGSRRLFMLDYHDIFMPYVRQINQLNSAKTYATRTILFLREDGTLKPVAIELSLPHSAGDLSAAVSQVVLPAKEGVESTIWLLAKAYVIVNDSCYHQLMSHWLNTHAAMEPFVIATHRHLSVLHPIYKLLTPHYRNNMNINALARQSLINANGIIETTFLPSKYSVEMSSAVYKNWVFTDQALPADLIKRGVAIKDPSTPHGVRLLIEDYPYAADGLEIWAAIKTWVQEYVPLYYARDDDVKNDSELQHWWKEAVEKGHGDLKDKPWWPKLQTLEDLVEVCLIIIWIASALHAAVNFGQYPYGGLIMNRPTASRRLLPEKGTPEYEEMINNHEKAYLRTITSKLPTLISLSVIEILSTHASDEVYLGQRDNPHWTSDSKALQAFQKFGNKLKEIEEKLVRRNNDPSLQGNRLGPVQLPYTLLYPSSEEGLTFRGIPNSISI
Put plainly: UV assay at […] nm, sodium linoleate oxidation, pH […]. The format is biochemical.

pIC50: −log10 of the molar value.

On to `O=C1C(=NNC(=S)Nc2ccccc2)c2cc(F)ccc2N1CN1CCCCC1` [FMp], for which the pIC50 (in general, the IC50 on a negative log10 scale, so that one unit is a factor of ten) is 4.27.
In turn, `COc1ccc2c(c1)/C(=N/NC(=S)Nc1ccccc1)C(=O)N2` [M] showed a pIC50 of 4.22.

The record behind these values is paper PMC9221192, “The Prophylactic and Multimodal Activity of Two Isatin Thiosemicarbazones against Alzheimer’s Disease In Vitro” (Brain Sciences, 2022).
